Laboratory results from ChEMBL document CHEMBL1201862, “PubChem BioAssay data set” (2004).
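1) Cells in 96-well plates. 2) Compound, 48 h, 5 concentrations. 3) Linear interpolation between surrounding doses. 4) Unreached endpoint = highest concentration. Abbreviation: GI50, concentration required for 50% inhibition of growth.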 The source made the active and inactive calls. No stated cut-off is given here; in the data, active = GI50 up to about 1.1 µM and inactive = higher. Where a SMILES comes first, the peptide text is derived from it. The star is where a group is joined. Cbz = O=C(OCc1ccccc1)*; Bn = c1ccc(C*)cc1

How the values were obtained:
Assay in all cases: NCI-60 cell line screen, 48 h
A498 = test system: A498
SK-OV-3 = test system: SK-OV-3
SR = test system: SR
SF-539 = test system: SF-539
RXF 393 = test system: RXF 393
HL-60 = test system: HL-60
A549 = test system: A549
OVCAR-8 = test system: OVCAR-8
CCRF-CEM = test system: CCRF-CEM
HCC 2998 = test system: HCC 2998
TK-10 = test system: TK-10
SNB-19 = test system: SNB-19
NCI/ADR-RES = test system: NCI/ADR-RES
T47D = test system: T47D
HOP-92 = test system: HOP-92
UACC-62 = test system: UACC-62
DU-145 = test system: DU-145
Malme-3M = test system: Malme-3M
MDA-MB-231 = test system: MDA-MB-231
Hs-578T = test system: Hs-578T

Measured: GI50

COC(=O)C(Cc1ccc(O)cc1)NC(=O)C(COCc1ccccc1)NC(=O)OCc1ccccc1 (stereo not given) (Cbz-Ser(Bn)-Tyr-OMe; configuration not given here)
inactive: A498 26.3 µM | SK-OV-3 17.4 µM | SR > 100 µM | SF-539 18.8 µM | RXF 393 18.7 µM | HL-60 > 100 µM | A549 19.4 µM | OVCAR-8 17.8 µM | CCRF-CEM 71.4 µM | HCC 2998 4.06 µM | TK-10 20 µM | SNB-19 16.9 µM | NCI/ADR-RES 19.6 µM | T47D 17.7 µM | HOP-92 25.5 µM | UACC-62 17 µM | DU-145 17.3 µM | Malme-3M 21.3 µM | MDA-MB-231 18.8 µM | Hs-578T 24.6 µM

COc1ccc2[nH]cc(C=C3C(=O)NC(=S)NC3=O)c2c1
inactive: A498 > 100 µM | SK-OV-3 52.2 µM | SR 30.1 µM | SF-539 > 100 µM | RXF 393 30.3 µM | HL-60 > 100 µM | A549 > 100 µM | OVCAR-8 36.6 µM | CCRF-CEM 71.8 µM | HCC 2998 > 100 µM | TK-10 38.9 µM | SNB-19 62.1 µM | NCI/ADR-RES > 100 µM | T47D > 100 µM | HOP-92 73.6 µM | UACC-62 > 100 µM | DU-145 > 100 µM | Malme-3M > 100 µM | MDA-MB-231 48.6 µM | Hs-578T 45.8 µM
